Read-outs that look alike come from different tables or passages of the source. One block for each compound: values may come before it.
Experiments:
[1] = Kinetic studies on the PFAA-Staudinger ligation with 1 by 1H NMR spectroscopy; details: reaction with 1, DMSO-d6, 2.5 mM, 25 °C
Description: The kinetics of the Staudinger ligation between 1 and 2a–2c (Scheme 1) were monitored by ^1H NMR spectroscopy, following spectral changes over time.
The kinetic experiments were carried out following a published protocol (Sundhoro et al. [2017]). […] Kinetic models were evaluated by non-linear fitting corresponding to first- and second-order rate laws in Prism 10 (GraphPad, San Diego, CA, USA) as expected for the Staudinger ligation. Fitting was carried out using kinetic models based on reagent decomposition (A) or product formation (P) as shown in the equations below, depending on signal clarity and the magnitude of ^1H NMR spectral changes over time:where [A] = concentration of reactant A at time t, [A]₀ = initial concentration of reactant A (at t = 0), [P] = concentration of product P at time t, [P]₀ = maximum possible product concentration, k = rate constant and t = time elapsed.

[2] = Stability of 2c under simulated radiolabeling conditions (HPLC); assay type: physicochemical; details: 60 nmol AlCl3, 1:1 0.17 M NaOAc (pH 4.5):EtOH, 30 min
Description: The analysis was carried out using a pentafluorophenyl (PFP) column (Kinetex 2.6 µm PFP 100 Å, LC Column 150 × 4.6 mm from Phenomenex, Torrance, CA, USA) and HPLC methods A and B (see SI). The Al^19F-complexes were isolated and analyzed using NMR and/or HRMS. The stability of 2c was also tested in the presence of 60 nmol AlCl3 in 1:1 (v/v) 0.17 M NaOAC (pH 4.5):EtOH, simulating the radiolabeling conditions.

[3] = cited from earlier work
Jurkat cells [4] = assay: Flow cytometry of metabolic glycoengineering (phosphine-PEG3-biotin, streptavidin-FITC); assay type: cell-based, Human; details: 50 µM, 72 h, then 1 µM phosphine-PEG3-biotin
Description: Jurkat cells (5 × 10^5 cells in 1.5-mL complete medium per well) were seeded in a non-treated flat-bottom polystyrene 6-well plate (Avantor, Radnor, PA, USA) and incubated in triplicates (n = 3) with 50 μM of 1, 50 μM of Ac4ManNAz (Lumiprobe, Westminster, MD, USA) or 0.5% (v/v) DMSO in complete medium for 72 h in a cell incubator set at 37 °C with 5% CO2 and 95% relative humidity. After incubation, the cells for each condition were combined and washed twice with 5 mL of 1 × Dulbecco's phosphate-buffered saline (DPBS). The cell number and viability were determined using EVE™ automatic cell counter (NanoEnTek, Seoul, Korea). 1 × 10^6 cells were resuspended in 500 µL of a freshly prepared 1 × DPBS (pH 7.4) or 1 µM of phosphine-PEG3-biotin (Thermo Fisher Scientific, Waltham, MA, USA) in 1 × DPBS (n = 3), then transferred to 1.5-mL microtubes, and incubated at ambient temperature for 60 min on a rotating platform. […] After the incubation, 400 µL of FACS (fluorescence-activated cell sorting) buffer (2% FBS in DPBS) was added followed by two washings with 500 µL of FACS buffer. […] Data were analyzed using FlowJo software (FlowJo LLC, Ashland, OR, United States).

Jurkat cells [5] = assay: Cell viability during flow cytometry workflow (automatic cell counter / 7-AAD); assay type: cell-based, Human
Description: (§1) After incubation, the cells for each condition were combined and washed twice with 5 mL of 1 × Dulbecco's phosphate-buffered saline (DPBS). The cell number and viability were determined using EVE™ automatic cell counter (NanoEnTek, Seoul, Korea). 1 × 10^6 cells were resuspended in 500 µL of a freshly prepared 1 × DPBS (pH 7.4) or 1 µM of phosphine-PEG3-biotin (Thermo Fisher Scientific, Waltham, MA, USA) in 1 × DPBS (n = 3), then transferred to 1.5-mL microtubes, and incubated at ambient temperature for 60 min on a rotating platform. Then, cells are washed twice with 1 × DPBS, resuspended in 100 µL of a freshly prepared solution of 1:200 streptavidin-fluorescein isothiocyanate (FITC) (0.1 μg, Thermo Fisher Scientific, Waltham, MA, USA) in 1 × DPBS, and incubated for 15 min in the dark on ice with mixing once manually in between. After the incubation, 400 µL of FACS (fluorescence-activated cell sorting) buffer (2% FBS in DPBS) was added followed by two washings with 500 µL of FACS buffer. During the washing step, the samples were centrifuged at 4 °C, […] for 5 min, the supernatant was removed, and the cells were resuspended in fresh buffer, followed by centrifugation. Lastly, cells were resuspended in 500 µL of FACS buffer and transferred to FACS tubes equipped with a 35 µm cell strainer cap. Dead and apoptotic cells were stained by adding 5 µL of 7-aminoactinomycin D (7-AAD) staining solution and incubating for 10 min at ambient temperature in the dark, followed by flow cytometry analysis using LSR Fortessa (BD Biosciences, Franklin Lake, NJ, USA). Unstained samples, samples stained only with streptavidin-FITC, and only with 7-AAD were used as controls. Data were analyzed using FlowJo software (FlowJo LLC, Ashland, OR, United States).

[6] = CyQUANT LDH Cytotoxicity Assay; assay type: cell-based; details: human, Jurkat T lymphoblasts (Clone E6-1), read-out: cell viability
Description: The in vitro cytotoxicity of 1 was assessed using the CyQUANT™ LDH Cytotoxicity Assay (Invitrogen, Waltham, MA, USA), which quantifies membrane damage via extracellular lactate dehydrogenase (LDH) release. Assay reagents (Lysis Buffer, Reaction Mixture, and Stop Solution) were prepared according to the manufacturer’s protocol. Human Jurkat T lymphoblasts (Clone E6-1, ATCC TIB-152™, Manassas, VA, USA) were suspended in complete medium and mixed (1:1) with 1 in complete medium to obtain final concentrations of 10, 20, 50, 125, and 250 μM containing 0.5% v/v DMSO vehicle. Positive control for cytotoxicity (maximum LDH; cells lysed with 10 × Lysis Buffer at 1:10 v/v, prepared before each time point), negative control for cytotoxicity (spontaneous LDH; 0.5% v/v DMSO in complete medium), and complete-medium and serum-free medium blanks (background) were included. Sample-containing and control cell suspensions were plates at a density of 14,000 cells per well in 280 μL on an opaque-walled, clear-bottom 96-well plate. Plates were incubated at 37 °C, 5% CO2 in a humidified incubator for 24, 48, and 72 h. All conditions were run in quadruplicate (n = 4). […] Absorbance was measured at 490 and 680 nm on a Synergy H1 multimode microplate reader (BioTek, Winooski, VT, USA). LDH signal was calculated as Abs490 – Abs680 (background-corrected).
% Cytotoxicity was determined as:

[7] = Cell viability during flow cytometry workflow (automatic cell counter / 7-AAD); assay type: cell-based, Human; details: human, Jurkat cells, 50 µM, 72 h
Description: as §1

SMILES: O=C(O)CN(CC(=O)O)CC(CCNC(=O)Cc1ccc(CN(CC(=O)O)[C@@H]2CCCC[C@H]2N(CC(=O)O)CC(=O)O)cc1)OC(=O)c1ccccc1P(c1ccccc1)c1ccccc1 (stereo partly drawn) [2a]
- second-order rate constant of PFAA-Staudinger ligation [1]: 4.246 × 10^–4 M⁻1 s⁻1

SMILES: O=C(O)CN(CC(=O)O)[C@@H]1CCCC[C@H]1N(CC(=O)O)Cc1ccc(CC(=O)NCCNC(=O)c2ccccc2P(c2ccccc2)c2ccccc2)cc1 [2b]
- first-order rate constant of PFAA-Staudinger ligation [1]: 5.434 × 10^–3 s⁻1

- stability under radiolabeling conditions without radioactivity (HPLC) [2]: negligible change
SMILES: O=C(O)CN(CC(=O)O)C1CCCCC1N(CC(=O)O)Cc1ccc(CC(=O)NC2CCC(CNC(=O)c3ccccc3P(c3ccccc3)c3ccccc3)CC2)cc1 (stereo not drawn) [2c]
- second-order rate constant of PFAA-Staudinger ligation [1]: 4.071 × 10^–4 M⁻1 s⁻1

SMILES: SCP(c1ccccc1)c1ccccc1 [(diphenylphosphino)methanethiol]
- second-order rate constant, traceless Staudinger ligation ([3]; DMF:D2O (6:1) ref Soellner et al. [2006]): 7.7 × 10^–3 M^−1 s^−1

SMILES: CC(=O)OC[C@H]1OC(OC(C)=O)[C@@H](NC(=O)CN=[N+]=[N-])[C@@H](OC(C)=O)[C@@H]1OC(C)=O (stereo partly drawn) [Ac4ManNAz, Tetra-acetylated N-azidoacetylmannosamine, reference compound]
- fluorescent labeling with streptavidin-FITC (Jurkat cells [4]): observed
- cell viability after 72 h of incubation (Jurkat cells [5]; 50 µM, 72 h): 96%
- cell viability at the time of analysis (Jurkat cells [5]; 50 µM, 72 h, after ligation and staining): 79–82%

SMILES: [N-]=[N+]=NCc1ccccc1 [benzyl azide]
- second-order rate constant, non-traceless Staudinger ligation ([3]; ACN:H2O (19:1) ref Lin et al. [2005]): 2.5 × 10^–3 M^−1 s^−1

SMILES: CC(=O)OCC1OC(OC(C)=O)C(NC(=O)c2c(F)c(F)c(N=[N+]=[N-])c(F)c2F)C(OC(C)=O)C1OC(C)=O (stereo not drawn) [compound 1, tetra-acetylated PFAA-derivatized mannosamine]
- viability ([6]; concentrations up to 50 μM, 24, 48 and 72 h): > 80%
- viability at 125 µM ([6]; ≥ 125 μM, after 24 and 72 h of incubation): < 80%
- fluorescent labeling with streptavidin-FITC (Jurkat cells [4]): minimal/no signal
- cell viability (Jurkat cells [5]; 100 µM, 72 h of incubation): reduced cell viability
- viability at 72 h, 50 µM ([7]; after ligation and staining, read-out: cell viability at the time of analysis): 77 to 80%
- viability at 72 h, 50 µM ([7]; read-out: cell viability after 72 h of incubation): 91%

— publication PMC12705485, “Aluminum-[^18F]fluoride radiolabeling of triarylphosphines for cell labeling via the perfluoroaryl azide Staudinger ligation” (EJNMMI Radiopharmacy and Chemistry, 2025)
